Results taken from US20260262643A1, “HERBICIDAL BENZOXAZINES” (FMC CORPORATION, priority 2022, published 2026).

How the values were obtained:
[1] = system: barnyardgrass; test: Test C preemergence; format: in vivo, Echinochloa crusgalli
Method in brief: (§1)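 Pre: seeds in loam/sand, directed soil spray. Post: 1–2 leaf plants, 2–10 cm. Cmpd in non-phytotoxic solvent + surfactant. Greenhouse 10 d; visual rating vs untreated, 0 = none, 100 = complete control.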

[2] = system: blackgrass; test: Test C preemergence; format: in vivo, Alopecurus myosuroides
Method in brief: as §1

[3] = system: corn; test: Test C preemergence; format: in vivo, Zea mays
Method in brief: as §1

[4] = system: green foxtail; test: Test C preemergence; format: in vivo, Setaria viridis
Method in brief: as §1

[5] = system: kochia; test: Test C preemergence; format: in vivo, Bassia scoparia
Method in brief: as §1

[6] = system: oat, wild; test: Test C preemergence; format: in vivo, Avena fatua
Method in brief: as §1

[7] = system: pigweed, palmer; test: Test C preemergence; format: in vivo, Amaranthus palmeri
Method in brief: as §1

[8] = system: ragweed; test: Test C preemergence; format: in vivo, Ambrosia artemisiifolia
Method in brief: as §1

[9] = system: ryegrass, Italian; test: Test C preemergence; format: in vivo, Lolium multiflorum
Method in brief: as §1

[10] = system: soybean; test: Test C preemergence; format: in vivo, Glycine max
Method in brief: as §1

[11] = system: wheat; test: Test C preemergence; format: in vivo, Triticum aestivum
Method in brief: as §1

[12] = system: barnyardgrass; test: Test C postemergence; format: in vivo, Echinochloa crusgalli; settings: 10 days, 0 to 100 scale (0 no effect, 100 complete control)
Method in brief: as §1

[13] = system: blackgrass; test: Test C postemergence; format: in vivo, Alopecurus myosuroides; settings: 10 days, 0 to 100 scale (0 no effect, 100 complete control)
Method in brief: as §1

[14] = system: corn; test: Test C postemergence; format: in vivo, Zea mays; settings: 10 days, 0 to 100 scale (0 no effect, 100 complete control)
Method in brief: as §1

[15] = system: green foxtail; test: Test C postemergence; format: in vivo, Setaria viridis; settings: 10 days, 0 to 100 scale (0 no effect, 100 complete control)
Method in brief: as §1

[16] = system: kochia; test: Test C postemergence; format: in vivo, Bassia scoparia; settings: 10 days, 0 to 100 scale (0 no effect, 100 complete control)
Method in brief: as §1

[17] = system: oat, wild; test: Test C postemergence; format: in vivo, Avena fatua; settings: 10 days, 0 to 100 scale (0 no effect, 100 complete control)
Method in brief: as §1

[18] = system: pigweed, palmer; test: Test C postemergence; format: in vivo, Amaranthus palmeri; settings: 10 days, 0 to 100 scale (0 no effect, 100 complete control)
Method in brief: as §1

[19] = system: ragweed; test: Test C postemergence; format: in vivo, Ambrosia artemisiifolia; settings: Postemergence, 125 g ai/ha; 0 to 100 scale (0 no effect, 100 complete control), 10 days
Method in brief: as §1

[20] = system: ryegrass, Italian; test: Test C postemergence; format: in vivo, Lolium multiflorum; settings: Postemergence, 125 g ai/ha; 0 to 100 scale (0 no effect, 100 complete control), 10 days
Method in brief: as §1

[21] = system: soybean; test: Test C postemergence; format: in vivo, Glycine max; settings: Postemergence, 125 g ai/ha; 0 to 100 scale (0 no effect, 100 complete control), 10 days
Method in brief: as §1

[22] = system: wheat; test: Test C postemergence; format: in vivo, Triticum aestivum; settings: Postemergence, 125 g ai/ha; 0 to 100 scale (0 no effect, 100 complete control), 10 days
Method in brief: as §1

[23] = system: galium; test: Test C postemergence; format: in vivo, Galium aparine; settings: 10 days, 0 to 100 scale (0 no effect, 100 complete control)
Method in brief: as §1

[24] = system: horseweed; test: Test C postemergence; format: in vivo, Erigeron canadensis; settings: 500 g ai/ha, postemergence, 10 days, 0 to 100 scale (0 no effect, 100 complete control)
Method in brief: as §1

[25] = system: barnyardgrass; test: Test D flooded paddy test; format: in vivo, Echinochloa crus-galli; settings: 250 g ai/ha, applied to paddy water, visual rating after 13 to 14 days, scale 0 to 100 (0 no effect, 100 complete control)
Method in brief: (§2)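 Seedlings reached the 2-leaf stage, then pots were flooded to 3 cm over the soil surface. Compound was applied into the water, depth was maintained, and plants stayed in the greenhouse 13 to 14 days before visual scoring (0–100) relative to controls.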

[26] = system: ducksalad; test: Test D flooded paddy test; format: in vivo, Heteranthera limosa; settings: 250 g ai/ha, applied to paddy water, visual rating after 13 to 14 days, scale 0 to 100 (0 no effect, 100 complete control)
Method in brief: as §2

[27] = system: rice; test: Test D flooded paddy test; format: in vivo, Oryza sativa; settings: 250 g ai/ha, applied to paddy water, visual rating after 13 to 14 days, scale 0 to 100 (0 no effect, 100 complete control)
Method in brief: as §2

[28] = system: sedge, umbrella; test: Test D flooded paddy test; format: in vivo, Cyperus difformis; settings: 250 g ai/ha, applied to paddy water, visual rating after 13 to 14 days, scale 0 to 100 (0 no effect, 100 complete control)
Method in brief: as §2

[29] = 500 g ai/ha, preemergence, 0 to 100 scale (0 no effect, 100 complete control)
[30] = Preemergence, 125 g ai/ha, 0 to 100 scale, 0 no effect, 100 complete control

## Cc1ccc(-n2cnc(CS(C)(=N)=O)n2)cc1C(=O)N1C[C@H](C)Oc2c(Cl)cccc21 (some centres unmarked) [Compound 403]
[1]; [29]
  Barnyardgrass plant response rating: 70
[1]; [30]
  Plant response rating, Barnyardgrass: 40
[2]; [29]
  Blackgrass plant response rating: 80
[2]; [30]
  Plant response rating, Blackgrass: 60
[3]; [29]
  Corn plant response rating: 50
[3]; [30]
  Plant response rating, Corn: 10
[4]; [29]
  Foxtail, Green plant response rating: 100
[4]; [30]
  Plant response rating, Foxtail, Green: 90
[5]; [29]
  Kochia plant response rating: 100
[5]; [30]
  Plant response rating, Kochia: 60
[6]; [29]
  Oat, Wild plant response rating: 40
[6]; [30]
  Plant response rating, Oat, Wild: 0
[7]; [29]
  Pigweed, Palmer plant response rating: 100
[7]; [30]
  Plant response rating, Pigweed, Palmer: 30
[8]; [29]
  Ragweed plant response rating: 80
[8]; [30]
  Plant response rating, Ragweed: 30
[9]; [29]
  Ryegrass, Italian plant response rating: 90
[9]; [30]
  Plant response rating, Ryegrass, Italian: 40
[10]; [29]
  Soybean plant response rating: 90
[10]; [30]
  Plant response rating, Soybean: 80
[11]; [29]
  Wheat plant response rating: 50
[11]; [30]
  Plant response rating, Wheat: 0
[12]; 500 g ai/ha, postemergence
  Plant response rating, Barnyardgrass: 70
[12]; Postemergence, 125 g ai/ha
  Plant response rating, Barnyardgrass: 30
[13]; 500 g ai/ha, postemergence
  Plant response rating, Blackgrass: 80
[13]; Postemergence, 125 g ai/ha
  Plant response rating, Blackgrass: 20
[14]; 500 g ai/ha, postemergence
  Plant response rating, Corn: 80
[14]; Postemergence, 125 g ai/ha
  Plant response rating, Corn: 20
[15]; 500 g ai/ha, postemergence
  Plant response rating, Foxtail, Green: 90
[15]; Postemergence, 125 g ai/ha
  Plant response rating, Foxtail, Green: 50
[16]; 500 g ai/ha, postemergence
  Plant response rating, Kochia: 80
[16]; Postemergence, 125 g ai/ha
  Plant response rating, Kochia: 80
[17]; 500 g ai/ha, postemergence
  Plant response rating, Oat, Wild: 90
[17]; Postemergence, 125 g ai/ha
  Plant response rating, Oat, Wild: 30
[18]; 500 g ai/ha, postemergence
  Plant response rating, Pigweed, Palmer: 100
[18]; Postemergence, 125 g ai/ha
  Plant response rating, Pigweed, Palmer: 90
[19]
  Plant response rating, Ragweed: 70
[20]
  Plant response rating, Ryegrass, Italian: 50
[21]
  Plant response rating, Soybean: 100
[22]
  Plant response rating, Wheat: 20
[23]; 500 g ai/ha, postemergence
  Plant response rating, Galium: 100
[23]; Postemergence, 125 g ai/ha
  Plant response rating, Galium: 100
[24]
  Plant response rating, Horseweed: 60
[25]
  Plant response rating, Barnyardgrass (Flood): 0
[26]
  Plant response rating, Ducksalad (Flood): 50
[27]
  Plant response rating, Rice (Flood): 0
[28]
  Plant response rating, Sedge, Umbrella (Flood): 45
